Assay results from article PMC3923778 (PLoS Currents, 2014).
Entries after “also recorded” stand apart in the source; their conditions may differ.

How the values were obtained:
[1] = tested on: R6/2 mice; test: Rotarod; format: in vivo, mouse; settings: BID, ANOVA
Description: Motor function testing including open field and rear climbing tests were commenced at 4 weeks of age and continued at weeks 6, 8 and 12, for grip strength test at age weeks 4 and 12 and for rotarod at age weeks 4, 6 and 8. Compound treatment was started at 4 weeks of age after the baseline behavioral tests.
Mice were tested at age weeks 4, 6 and 8 over 3 consecutive days (Wed, Thu, Fri). Each daily session included a training trial of 5 min at 4 RPM on the rotarod apparatus (AccuScan Instruments, Columbus, USA). One hour later, the animals were tested for 3 consecutive accelerating trials of 6 min with the speed changing from 0 to 40 RPM over 360 seconds and an inter-trial interval at least 30 min. The latency to fall from the rod was recorded. Mice remaining on the rod for more than 360 s were removed and their time scored as 360 sec.
(§1) All values are presented as mean ± Standard Error of Mean (SEM), and differences are considered to be statistically significant at the p < 0.05 level. Statistical analysis was performed using StatsDirect statistical software. Differences between group means were analyzed by 1-way-ANOVA followed by Dunnett’s test (comparison to the control (=vehicle treated TG mice) group). The acquisition of the Cued two-choice swim test was analyzed using Fisher’s exact test.

[2] = tested on: R6/2 mice; test: Chronic oral dosing in the R6/2 mouse model, overall disease progression; format: in vivo; settings: chronic oral administration, 10 or 30 mg/kg BID p.o. from 4 weeks
Description: All animal experiments were carried out according to the National Institute of Health (NIH) guidelines for the care and use of laboratory animals, and approved by the National Laboratory Animal Board, Finland. 60 male and female R6/2 TG mice (R6/2J CAG 120 and 12 male and female wild-type littermate control mice were bred at National Animal Facility Center, Kuopio, Finland.
Mice were housed in groups of 4 and separated by sexes. In each cage, one wild-type mouse of the same sex, but different litter, was included in an attempt to provide normal social stimulation. Mice were allowed to acclimate to the experimental room for at least one hour prior to the beginning of any experiment. Mice were transported from the colony room to experimental rooms in their home cages. Experimentation was conducted in a blinded manner. Tail samples were taken at the end of the study for verification of genotypes and CAG sizes of individual mice.
as §1

[3] = tested on: disease-relevant genes; test: Taqman-qPCR of disease-relevant genes; format: in vivo, mouse; settings: chronic administration; 13 weeks of age; lower dose group study
Description: Total RNA was extracted with the mini-RNA kit accordingly to manufacturer instructions (Qiagen). Reverse transcription (RT) was performed using MMLV superscript reverse transcriptase (Invitrogen) and random hexamers (Operon) and all Taqman-qPCR reactions were performed using the Chromo4 Real-Time PCR Detector (BioRad) as described. Expression level of the gene-of-interest was normalised to the geometric mean of three endogenous housekeeping genes (Primer Design) as described. […]

[4] = Body weight during chronic dosing in R6/2 mice; format: in vivo, mouse; settings: BID, ANOVA
Description: Body weight was measured starting at the age of 4 weeks and a further two times per week on the same day until the end of the study. This was done just prior to animals receiving doses for those days.
as §1

[5] = tested on: R6/2 mice; test: Acute and subchronic (2 weeks) tolerability evaluation in R6/2 mice; format: in vivo; settings: R6/2 mice starting at 6 weeks of age, all doses administered
Source text: Prior to chronic dosing, we conducted an acute and subchronic (2 weeks) tolerability evaluation in R6/2 mice starting at 6 weeks of age (studies conducted at Psychogenics, USA; see Supplementary Report 1 for full details).

[6] = tested on: R6/2 mice; test: Survival study in R6/2 mice; format: in vivo, mouse; settings: for Mean (±SEM) Survival Time / Medial Survival Time: R6/2 mice
[7] = tested on: R6/2 mice; test: T2-MRI brain volumetry; format: in vivo, mouse; settings: chronic administration, 13 weeks
Description: MRI analysis was performed for all mice at the age of 13 weeks in a horizontal 7T magnet with bore size 160 mm (Magnex Scientific Ltd., Oxford, UK) equipped with Magnex gradient set (max. gradient strength 400 mT/m, bore 100 mm) interfaced to a Varian DirectDrive console (Varian, Inc., Palo Alto, CA) using a volume coil for transmission and surface phased array coil for receiving (Rapid Biomedical GmbH, Rimpar, Germany). Isoflurane -anesthetized mice were fixed to a head holder and positioned in the magnet bore in a standard orientation relative to gradient coils. Rectal temperature (TC-1000 Temperature Controller, CWE Inc., Ardmore, PA, USA) and respiration (ECG Trigger Unit, Rapid Biomedical GmbH) were monitored throughout the study and the body temperature was kept at 36-37°C. […]
as §1, with “Statistical analysis was performed using StatsDirect statistical software.” left out

Structure (SMILES): CN1C(=O)c2nc(Cc3ccc(C(F)(F)F)cc3)[nH]c2N2C1=N[C@H]1CCC[C@H]12 [SCH-51866, (+)-cis-5,6a,7,8,9,9a-hexahydro-2-[4-[trifluro-methyl]phenylmethyl]-5-methyl-cylopent[4,5]imidazo [2,1-b]purin-4(3H)one]
- Rotarod: p vs Vehicle-treated R6/2 mice ([1]; Age Week 4, 10 mg/kg p.o.): ANOVA: p=0.458
- Rotarod: p vs Vehicle-treated R6/2 mice ([1]; Age Week 4, 30 mg/kg p.o.): ANOVA: p=0.458
- Rotarod: p vs Vehicle-treated R6/2 mice ([1]; Age Week 6, 10 mg/kg p.o.): ANOVA: p=0.262
- Rotarod: p vs Vehicle-treated R6/2 mice ([1]; Age Week 6, 30 mg/kg p.o.): ANOVA: p=0.262
- Rotarod: p vs Vehicle-treated R6/2 mice ([1]; Age Week 8, 10 mg/kg p.o.): ANOVA: p=0.171
- Rotarod: p vs Vehicle-treated R6/2 mice ([1]; Age Week 8, 30 mg/kg p.o.): ANOVA: p=0.171
- effect on R6/2 disease progression / disease-related phenotypes [2]: did not ameliorate disease progression; also recorded: did not modify any R6/2 disease-related phenotypes
- expression of disease-relevant genes in striatum, cortex and cerebellum [3]: did not have a statistically significant effect; also recorded: no effects on the dysregulation of these genes
- Body Weight: p vs Vehicle-treated R6/2 mice ([4]; Age Week 4, 10 mg/kg p.o.): ANOVA: p=0.878
- Body Weight: p vs Vehicle-treated R6/2 mice ([4]; Age Week 4, 30 mg/kg p.o.): ANOVA: p=0.878
- Body Weight: p vs Vehicle-treated R6/2 mice ([4]; Age Week 5, 10 mg/kg p.o.): ANOVA: p=0.762
- Body Weight: p vs Vehicle-treated R6/2 mice ([4]; Age Week 5, 30 mg/kg p.o.): ANOVA: p=0.762
- Body Weight: p vs Vehicle-treated R6/2 mice ([4]; Age Week 6, 10 mg/kg p.o.): ANOVA: p=0.934
- Body Weight: p vs Vehicle-treated R6/2 mice ([4]; Age Week 6, 30 mg/kg p.o.): ANOVA: p=0.934
- Body Weight: p vs Vehicle-treated R6/2 mice ([4]; Age Week 7, 10 mg/kg p.o.): ANOVA: p=0.766
- Body Weight: p vs Vehicle-treated R6/2 mice ([4]; Age Week 7, 30 mg/kg p.o.): ANOVA: p=0.766
- Body Weight: p vs Vehicle-treated R6/2 mice ([4]; Age Week 8, 10 mg/kg p.o.): ANOVA: p=0.926
- Body Weight: p vs Vehicle-treated R6/2 mice ([4]; Age Week 8, 30 mg/kg p.o.): ANOVA: p=0.926
- Body Weight: p vs Vehicle-treated R6/2 mice ([4]; Age Week 9, 10 mg/kg p.o.): ANOVA: p=0.886
- Body Weight: p vs Vehicle-treated R6/2 mice ([4]; Age Week 9, 30 mg/kg p.o.): ANOVA: p=0.886
- Body Weight: p vs Vehicle-treated R6/2 mice ([4]; Age Week 10, 10 mg/kg p.o.): ANOVA: p=0.969
- Body Weight: p vs Vehicle-treated R6/2 mice ([4]; Age Week 10, 30 mg/kg p.o.): ANOVA: p=0.969
- Body Weight: p vs Vehicle-treated R6/2 mice ([4]; Age Week 11, 10 mg/kg p.o.): ANOVA: p=0.891
- Body Weight: p vs Vehicle-treated R6/2 mice ([4]; Age Week 11, 30 mg/kg p.o.): ANOVA: p=0.891
- Body Weight: p vs Vehicle-treated R6/2 mice ([4]; Age Week 12, 10 mg/kg p.o.): ANOVA: p=0.774
- Body Weight: p vs Vehicle-treated R6/2 mice ([4]; Age Week 12, 30 mg/kg p.o.): ANOVA: p=0.774
- Body Weight: p vs Vehicle-treated R6/2 mice ([4]; Age Week 13, 10 mg/kg p.o.): ANOVA: p=0.855
- Body Weight: p vs Vehicle-treated R6/2 mice ([4]; Age Week 13, 30 mg/kg p.o.): ANOVA: p=0.855
- Body Weight: p vs Vehicle-treated R6/2 mice ([4]; Age Week 14, 10 mg/kg p.o.): ANOVA: p=0.878
- Body Weight: p vs Vehicle-treated R6/2 mice ([4]; Age Week 14, 30 mg/kg p.o.): ANOVA: p=0.878
- Body Weight: p vs Vehicle-treated R6/2 mice ([4]; Age Week 15, 10 mg/kg p.o.): ANOVA: p=0.989
- Body Weight: p vs Vehicle-treated R6/2 mice ([4]; Age Week 15, 30 mg/kg p.o.): ANOVA: p=0.989
- Body Weight: p vs Vehicle-treated R6/2 mice ([4]; Age Week 16, 10 mg/kg p.o.): ANOVA: p=0.651
- Body Weight: p vs Vehicle-treated R6/2 mice ([4]; Age Week 16, 30 mg/kg p.o.): ANOVA: p=0.651
- Body Weight: p vs Vehicle-treated R6/2 mice ([4]; Age Week 17, 10 mg/kg p.o.): ANOVA: p=0.817
- Body Weight: p vs Vehicle-treated R6/2 mice ([4]; Age Week 17, 30 mg/kg p.o.): ANOVA: p=0.817
- Body Weight: p vs Vehicle-treated R6/2 mice ([4]; Age Week 18, 10 mg/kg p.o.): ANOVA: p=0.644
- Body Weight: p vs Vehicle-treated R6/2 mice ([4]; Age Week 18, 30 mg/kg p.o.): ANOVA: p=0.644
- Body Weight: p vs Vehicle-treated R6/2 mice ([4]; Age Week 19, 10 mg/kg p.o.): ANOVA: p=0.975
- Body Weight: p vs Vehicle-treated R6/2 mice ([4]; Age Week 19, 30 mg/kg p.o.): ANOVA: p=0.975
- Body Weight: p vs Vehicle-treated R6/2 mice ([4]; Age Week 20, 10 mg/kg p.o.): ANOVA: p=0.900
- Body Weight: p vs Vehicle-treated R6/2 mice ([4]; Age Week 20, 30 mg/kg p.o.): ANOVA: p=0.900
- Body Weight: p vs Vehicle-treated R6/2 mice ([4]; Age Week 21, 10 mg/kg p.o.): ANOVA: p=0.996
- Body Weight: p vs Vehicle-treated R6/2 mice ([4]; Age Week 21, 30 mg/kg p.o.): ANOVA: p=0.996
- tolerability [5]: well tolerated with no sign of adverse effects
- Generalized Wilcoxon (Peto-Prentice) Test, Chi-square for equiv. of death rates p ([6]; 10 mg/kg (p.o., BID) column): Chi-square for equiv. of death rates p=0.543
- Log-rank (Peto) Test, Chi-square for equiv. of death rates p ([6]; 10 mg/kg (p.o., BID) column): 0.555
- Mean (±SEM) Survival Time ([6]; 10 mg/kg (p.o., BID)): 115 (±7) days
- Medial Survival Time ([6]; 10 mg/kg (p.o., BID)): 110 days
- Generalized Wilcoxon (Peto-Prentice) Test, Chi-square for equiv. of death rates p ([6]; 30 mg/kg (p.o., BID) column): Chi-square for equiv. of death rates p=0.543
- Log-rank (Peto) Test, Chi-square for equiv. of death rates p ([6]; 30 mg/kg (p.o., BID) column): 0.555
- Mean (±SEM) Survival Time ([6]; 30 mg/kg (p.o., BID)): 122 (±5) days
- Medial Survival Time ([6]; 30 mg/kg (p.o., BID)): 121 days
- Survival, effect in words ([6]; vs R6/2 vehicle-treated animals): no survival benefit
- brain volume, cortex (MRI) [7]: no improvement in brain volume
- brain volume, striatum (MRI) [7]: no improvement in brain volume
